Drawing on the NIST ThermoML archive (doi:10.1016/j.jct.2017.11.017), this text covers activity coefficient for 23 compounds.

Numbers after ± are expanded uncertainties.

A short description of this data set: activity coefficient (dimensionless); of the first substance listed, at infinite dilution; xn = mol fraction of the nth substance listed. Conditions: 101.33 kPa, Liquid, Chromatography, x1 = 0.

Turning to `C1CCCCCCC1` [cyclooctane] + C[N+]1(CCCO)CCOCC1.N#C[N-]C#N, the activity coefficient came to 571 ± 39 (308.15 K); 478 ± 33 (318.15 K); 408 ± 28 (328.15 K); 345 ± 24 (338.15 K); 298 ± 20 (348.15 K); 260 ± 18 (358.15 K). For the same compound, the activity coefficient (368.15 K) turned out to be 229 ± 16.

As to `C1CCCC1` [cyclopentane] + C[n+]1ccn(CCCO)c1.N#CN=C=[N-], the activity coefficient is, setting by setting: (298.15 K) 69.3 ± 4.7; (308.15 K) 63.7 ± 4.4; (318.15 K) 58.7 ± 4; (328.15 K) 54.5 ± 3.7.

Regarding `CCOC(C)(C)C` [2-ethoxy-2-methylpropane] + C[n+]1ccn(CCCO)c1.N#CN=C=[N-], the activity coefficient (318.15 K) came out at 78.5 ± 5.4; the activity coefficient (328.15 K) was 76.2 ± 5.2; the activity coefficient (338.15 K) was found to be 74.5 ± 5.1; the activity coefficient (348.15 K) worked out at 73.1 ± 5; the activity coefficient (358.15 K) is 72.1 ± 4.9; the activity coefficient (368.15 K) is 70.5 ± 4.8.

For `C=CCCCCCCCC` [1-decene] + C[N+]1(CCCO)CCOCC1.N#C[N-]C#N, the activity coefficient reads like this: (308.15 K) 1640 ± 110; (318.15 K) 1460 ± 100; (328.15 K) 1300 ± 89; (338.15 K) 1160 ± 80; (348.15 K) 1050 ± 72; (358.15 K) 952 ± 66. The activity coefficient (368.15 K) worked out at 875 ± 60.

Consider `CCCC(C)=O` [pentan-2-one] + C[n+]1ccn(CCCO)c1.N#CN=C=[N-], for which the activity coefficient reads like this: (318.15 K) 4.94 ± 0.34; (328.15 K) 5.14 ± 0.35; (338.15 K) 5.32 ± 0.36; (348.15 K) 5.46 ± 0.37; (358.15 K) 5.67 ± 0.39; (368.15 K) 5.81 ± 0.4.

For the compound `CC(C)c1ccccc1` [isopropylbenzene] + C[n+]1ccn(CCCO)c1.N#CN=C=[N-], the activity coefficient came out at 25.8 ± 1.8 (318.15 K); 26.2 ± 1.8 (328.15 K); 26.6 ± 1.8 (338.15 K); 26.8 ± 1.8 (348.15 K); 27.1 ± 1.9 (358.15 K); 27.4 ± 1.9 (368.15 K).

For `Cc1ccccc1` [toluene] + C[n+]1ccn(CCCO)c1.N#CN=C=[N-], the activity coefficient worked out at 7.75 ± 0.53 (318.15 K); 8 ± 0.55 (328.15 K); 8.27 ± 0.56 (338.15 K); 8.51 ± 0.58 (348.15 K); 8.84 ± 0.6 (358.15 K); 9.09 ± 0.62 (368.15 K).

As to `C#CCCCC` [1-hexyne] + C[N+]1(CCCO)CCOCC1.N#C[N-]C#N, the activity coefficient reads like this: (308.15 K) 44.5 ± 3; (318.15 K) 42.9 ± 2.9; (328.15 K) 41.6 ± 2.8; (338.15 K) 40.2 ± 2.8; (348.15 K) 39.1 ± 2.7; (358.15 K) 38 ± 2.6. Moreover, the activity coefficient (368.15 K) is 37 ± 2.5.

Consider `CCO` [ethanol] + C[n+]1ccn(CCCO)c1.N#CN=C=[N-], for which the activity coefficient by setting is: (318.15 K) 1.17 ± 0.07; (328.15 K) 1.17 ± 0.07; (338.15 K) 1.18 ± 0.08; (348.15 K) 1.19 ± 0.08; (358.15 K) 1.2 ± 0.08; (368.15 K) 1.2 ± 0.08.

With `C=C(C)c1ccccc1` [(1-methylethenyl)benzene] + C[n+]1ccn(CCCO)c1.N#CN=C=[N-], the activity coefficient (318.15 K) turned out to be 10.2 ± 0.7; the activity coefficient (328.15 K) turned out to be 10.9 ± 0.7; the activity coefficient (338.15 K) was found to be 11.5 ± 0.8; the activity coefficient (348.15 K) came out at 12.1 ± 0.8; the activity coefficient (358.15 K) turned out to be 12.7 ± 0.9; the activity coefficient (368.15 K) was 13.3 ± 0.9.

As for `CC1CCCCC1` [methylcyclohexane] + C[n+]1ccn(CCCO)c1.N#CN=C=[N-], the activity coefficient by setting is: (298.15 K) 207 ± 14; (308.15 K) 187 ± 13; (318.15 K) 169 ± 12; (328.15 K) 154 ± 11; (338.15 K) 141 ± 10; (348.15 K) 131 ± 9. The activity coefficient (358.15 K) worked out at 121 ± 8.

As for `CCCCO` [butan-1-ol] + C[n+]1ccn(CCCO)c1.N#CN=C=[N-], the activity coefficient (318.15 K) amounted to 2.8 ± 0.19; the activity coefficient (328.15 K) amounted to 2.75 ± 0.19; the activity coefficient (338.15 K) worked out at 2.73 ± 0.19; the activity coefficient (348.15 K) came out at 2.7 ± 0.18; the activity coefficient (358.15 K) is 2.69 ± 0.18; the activity coefficient (368.15 K) is 2.68 ± 0.18.

As to `CCCC(C)=O` [pentan-2-one] + C[N+]1(CCCO)CCOCC1.N#C[N-]C#N, the activity coefficient turned out to be 7.85 ± 0.54 (318.15 K); 7.96 ± 0.54 (328.15 K); 8.1 ± 0.55 (338.15 K); 8.23 ± 0.56 (348.15 K); 8.33 ± 0.57 (358.15 K); 8.44 ± 0.58 (368.15 K).

With `CCCO` [propan-1-ol] + C[N+]1(CCCO)CCOCC1.N#C[N-]C#N, the activity coefficient by setting is: (318.15 K) 2.63 ± 0.18; (328.15 K) 2.58 ± 0.18; (338.15 K) 2.55 ± 0.17; (348.15 K) 2.52 ± 0.17; (358.15 K) 2.49 ± 0.17; (368.15 K) 2.46 ± 0.17.

With `CC(C)=O` [acetone] + C[n+]1ccn(CCCO)c1.N#CN=C=[N-], the activity coefficient reads like this: (318.15 K) 1.76 ± 0.12; (328.15 K) 1.83 ± 0.12; (338.15 K) 1.92 ± 0.13; (348.15 K) 2 ± 0.14; (358.15 K) 2.09 ± 0.14; (368.15 K) 2.19 ± 0.15.

As for `Cc1ccc(C)cc1` [1,4-dimethylbenzene] + C[N+]1(CCCO)CCOCC1.N#C[N-]C#N, the activity coefficient runs as follows: (318.15 K) 23.2 ± 1.6; (328.15 K) 23.3 ± 1.6; (338.15 K) 23.5 ± 1.6; (348.15 K) 23.7 ± 1.6; (358.15 K) 23.8 ± 1.6; (368.15 K) 24.1 ± 1.6.

Take `CC(C)=O` [acetone] + C[N+]1(CCCO)CCOCC1.N#C[N-]C#N: the activity coefficient (318.15 K) was 2.24 ± 0.15; the activity coefficient (328.15 K) came to 2.3 ± 0.16; the activity coefficient (338.15 K) was determined as 2.37 ± 0.16; the activity coefficient (348.15 K) was determined as 2.45 ± 0.17; the activity coefficient (358.15 K) stood at 2.51 ± 0.17; the activity coefficient (368.15 K) turned out to be 2.59 ± 0.18.

As for `C#CCCCCC` [1-heptyne] + C[n+]1ccn(CCCO)c1.N#CN=C=[N-], the activity coefficient amounted to 34 ± 2.3 (298.15 K); 34.3 ± 2.3 (308.15 K); 34.6 ± 2.4 (318.15 K); 34.6 ± 2.4 (328.15 K); 35.1 ± 2.4 (338.15 K); 35.3 ± 2.4 (348.15 K). Where the note is “358.15 K”, the activity coefficient was 35.3 ± 2.4.

Turning to `O` [water] + C[n+]1ccn(CCCO)c1.N#CN=C=[N-], the activity coefficient reads like this: (318.15 K) 0.35 ± 0.03; (328.15 K) 0.36 ± 0.03; (338.15 K) 0.37 ± 0.03; (348.15 K) 0.38 ± 0.03; (358.15 K) 0.4 ± 0.03; (368.15 K) 0.41 ± 0.03.

`c1ccccc1` [benzene] + C[N+]1(CCCO)CCOCC1.N#C[N-]C#N: the activity coefficient (318.15 K) was found to be 6.97 ± 0.48; the activity coefficient (328.15 K) turned out to be 7.09 ± 0.48; the activity coefficient (338.15 K) was found to be 7.2 ± 0.49; the activity coefficient (348.15 K) amounted to 7.33 ± 0.5; the activity coefficient (358.15 K) turned out to be 7.41 ± 0.51; the activity coefficient (368.15 K) worked out at 7.57 ± 0.52.

Consider `CCCOCCC` [dipropyl ether] + C[n+]1ccn(CCCO)c1.N#CN=C=[N-], for which the activity coefficient is, setting by setting: (318.15 K) 82.3 ± 5.6; (328.15 K) 79.9 ± 5.5; (338.15 K) 77.7 ± 5.3; (348.15 K) 75.8 ± 5.2; (358.15 K) 74.4 ± 5.1; (368.15 K) 72.5 ± 5.

For the compound `Cc1ccccc1C` [1,2-dimethylbenzene] + C[n+]1ccn(CCCO)c1.N#CN=C=[N-], the activity coefficient was found to be 10.9 ± 0.7 (318.15 K); 11.3 ± 0.8 (328.15 K); 11.7 ± 0.8 (338.15 K); 12 ± 0.8 (348.15 K); 12.5 ± 0.9 (358.15 K); 12.8 ± 0.9 (368.15 K).

`C1COCCO1` [1,4-dioxane] + C[N+]1(CCCO)CCOCC1.N#C[N-]C#N: the activity coefficient runs as follows: (318.15 K) 1.94 ± 0.13; (328.15 K) 2.07 ± 0.14; (338.15 K) 2.2 ± 0.15; (348.15 K) 2.33 ± 0.16; (358.15 K) 2.45 ± 0.17; (368.15 K) 2.59 ± 0.18.
